Data reported in ChEMBL document CHEMBL2203217, “Prohormone-substrate peptide sequence recognition by peptidylglycine α-amidating monooxygenase and its reflection in increased glycolate inhibitor potency” (Bioorg Med Chem Lett, 2012).

Tests used:
[1] = molecular target: T1, Peptidyl-glycine alpha-amidating monooxygenase (Homo sapiens, UniProt P19021); assay: Competitive inhibition of secreted PAM in human DMS53 cell culture medium using as(R)-Tyr-(S)-Val-Gly as substrate after 2 hrs by HPLC analysis; set-up: species or system DMS-53
T1 sequence (P19021 whole entry): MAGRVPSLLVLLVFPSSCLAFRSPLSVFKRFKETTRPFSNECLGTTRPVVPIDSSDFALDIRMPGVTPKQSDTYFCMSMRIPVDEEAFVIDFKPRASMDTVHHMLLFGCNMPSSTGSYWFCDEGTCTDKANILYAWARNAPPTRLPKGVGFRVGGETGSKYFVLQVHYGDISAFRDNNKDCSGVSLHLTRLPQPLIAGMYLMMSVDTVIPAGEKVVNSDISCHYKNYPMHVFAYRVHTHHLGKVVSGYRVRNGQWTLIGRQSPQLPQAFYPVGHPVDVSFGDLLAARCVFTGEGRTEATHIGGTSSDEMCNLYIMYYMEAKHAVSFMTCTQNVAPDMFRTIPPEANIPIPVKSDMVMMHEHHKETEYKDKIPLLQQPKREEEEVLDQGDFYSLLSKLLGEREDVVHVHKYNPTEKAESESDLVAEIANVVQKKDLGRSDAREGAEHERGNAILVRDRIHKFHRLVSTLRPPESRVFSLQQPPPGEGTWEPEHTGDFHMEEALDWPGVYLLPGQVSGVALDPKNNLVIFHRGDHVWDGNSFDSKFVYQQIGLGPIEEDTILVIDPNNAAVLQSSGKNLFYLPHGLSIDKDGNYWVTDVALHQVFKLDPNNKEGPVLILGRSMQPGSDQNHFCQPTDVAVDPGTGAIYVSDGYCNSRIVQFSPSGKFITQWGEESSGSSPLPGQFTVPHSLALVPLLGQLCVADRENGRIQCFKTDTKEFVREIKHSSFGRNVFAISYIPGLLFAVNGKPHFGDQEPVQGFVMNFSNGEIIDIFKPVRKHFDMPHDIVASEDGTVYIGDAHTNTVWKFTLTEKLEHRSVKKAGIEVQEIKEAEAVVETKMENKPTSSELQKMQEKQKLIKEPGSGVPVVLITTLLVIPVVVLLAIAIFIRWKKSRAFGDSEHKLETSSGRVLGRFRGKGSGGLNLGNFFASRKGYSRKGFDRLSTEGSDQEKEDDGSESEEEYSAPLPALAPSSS

[2] = molecular target: T1, Peptidyl-glycine alpha-amidating monooxygenase; assay: Competitive inhibition of PAM in human DMS53 cells using as(R)-Tyr-(S)-Val-Gly as substrate after 2 hrs by HPLC analysis; type: cell-based, DMS-53

IC50 [1]: 1800 µM | IC50 [2]: 210 µM
Structure (SMILES): CC(=O)NCC(=O)OCC(=O)O
